Experimental findings from US20230066011A1, “PYRROLOPYRIMIDINE DERIVATIVE, AND PHARMACEUTICAL COMPOSITION FOR PREVENTING OR TREATING PROTEIN KINASE-RELATED DISEASE COMPRISING SAME AS ACTIVE INGREDIENT” (VORONOI CO., LTD., priority 2019, published 2023) are described below.

What is called GI50 is the concentration that inhibits growth by half. A low value points to more potent growth inhibition. Usually IC50 stands for the midpoint of a concentration-inhibition curve.

In one experiment the test system is human DYRK1A and tau. As to the kind of experiment: Inhibition of tau phosphorylation, ClariCELL Kinase Cell-Based Assay, HEK 293 cells expressing human DYRK1A and tau. The note with it: for inhibition at 1 µM: HEK293, read-out: % inhibition at 1 uM, tau phosphorylation, compound 1 uM; for inhibition at 0.25 µM / inhibition at 0.5 µM: HEK293, tau phosphorylation; for inhibition at 0.25 µM: compound 0.25 uM; for inhibition at 0.5 µM: compound 0.5 uM. Put shortly: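 Cell-based service assay: HEK 293 cells transiently expressing human DYRK1A and tau were treated with compound and lysed. Released tau was plate-captured and its phosphorylation quantified by ELISA with a phospho-tau-specific antibody.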

The next experiment deals with MDA-MB-231 cell line. As to the kind of experiment: Inhibition of proliferation of MDA-MB-231 cancer cells (Cell Titer-Glo). In kind it is cell-based. Conditions: Homo sapiens, 72 hours. Put shortly: (§1)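 A 72-hour treatment with compound (eleven final concentrations, 3-fold apart, top 10 μM) of cells seeded at 2,000 per well preceded a Cell Titer-Glo luminescence read, from which GI50 was obtained.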

Experiment [1] deals with T1, LRRK2 (G2019S) (Homo sapiens, UniProt Q5S007, G2019S). Briefly: Kinase HotSpot service (Reaction Biology Corporation), LRRK2 (G2019S). In kind it is biochemical. Also noted: purchased DiscoverX Corp. (ScanMAX Kinase analysis panel, service). The note with it: ATP 10 uM, read-out: LRRK2 (G2019S) IC50 (values indicated by *). As to the method:
(§2) The inhibitory activities of the compounds were measured at a 3-fold concentration gradient starting from a maximum compound concentration of […], and the values measured using the Kinase HotSpot service (Reaction Biology Corporation) are indicated by an asterisk (*).
(§3) All the experimental methods were performed as provided by the Kinase HotSpot Customer Protocol (http://www.reactionbiology.com//Kinase_Assay_Protocol).
Target sequence in this assay (Q5S007 whole entry G2019S): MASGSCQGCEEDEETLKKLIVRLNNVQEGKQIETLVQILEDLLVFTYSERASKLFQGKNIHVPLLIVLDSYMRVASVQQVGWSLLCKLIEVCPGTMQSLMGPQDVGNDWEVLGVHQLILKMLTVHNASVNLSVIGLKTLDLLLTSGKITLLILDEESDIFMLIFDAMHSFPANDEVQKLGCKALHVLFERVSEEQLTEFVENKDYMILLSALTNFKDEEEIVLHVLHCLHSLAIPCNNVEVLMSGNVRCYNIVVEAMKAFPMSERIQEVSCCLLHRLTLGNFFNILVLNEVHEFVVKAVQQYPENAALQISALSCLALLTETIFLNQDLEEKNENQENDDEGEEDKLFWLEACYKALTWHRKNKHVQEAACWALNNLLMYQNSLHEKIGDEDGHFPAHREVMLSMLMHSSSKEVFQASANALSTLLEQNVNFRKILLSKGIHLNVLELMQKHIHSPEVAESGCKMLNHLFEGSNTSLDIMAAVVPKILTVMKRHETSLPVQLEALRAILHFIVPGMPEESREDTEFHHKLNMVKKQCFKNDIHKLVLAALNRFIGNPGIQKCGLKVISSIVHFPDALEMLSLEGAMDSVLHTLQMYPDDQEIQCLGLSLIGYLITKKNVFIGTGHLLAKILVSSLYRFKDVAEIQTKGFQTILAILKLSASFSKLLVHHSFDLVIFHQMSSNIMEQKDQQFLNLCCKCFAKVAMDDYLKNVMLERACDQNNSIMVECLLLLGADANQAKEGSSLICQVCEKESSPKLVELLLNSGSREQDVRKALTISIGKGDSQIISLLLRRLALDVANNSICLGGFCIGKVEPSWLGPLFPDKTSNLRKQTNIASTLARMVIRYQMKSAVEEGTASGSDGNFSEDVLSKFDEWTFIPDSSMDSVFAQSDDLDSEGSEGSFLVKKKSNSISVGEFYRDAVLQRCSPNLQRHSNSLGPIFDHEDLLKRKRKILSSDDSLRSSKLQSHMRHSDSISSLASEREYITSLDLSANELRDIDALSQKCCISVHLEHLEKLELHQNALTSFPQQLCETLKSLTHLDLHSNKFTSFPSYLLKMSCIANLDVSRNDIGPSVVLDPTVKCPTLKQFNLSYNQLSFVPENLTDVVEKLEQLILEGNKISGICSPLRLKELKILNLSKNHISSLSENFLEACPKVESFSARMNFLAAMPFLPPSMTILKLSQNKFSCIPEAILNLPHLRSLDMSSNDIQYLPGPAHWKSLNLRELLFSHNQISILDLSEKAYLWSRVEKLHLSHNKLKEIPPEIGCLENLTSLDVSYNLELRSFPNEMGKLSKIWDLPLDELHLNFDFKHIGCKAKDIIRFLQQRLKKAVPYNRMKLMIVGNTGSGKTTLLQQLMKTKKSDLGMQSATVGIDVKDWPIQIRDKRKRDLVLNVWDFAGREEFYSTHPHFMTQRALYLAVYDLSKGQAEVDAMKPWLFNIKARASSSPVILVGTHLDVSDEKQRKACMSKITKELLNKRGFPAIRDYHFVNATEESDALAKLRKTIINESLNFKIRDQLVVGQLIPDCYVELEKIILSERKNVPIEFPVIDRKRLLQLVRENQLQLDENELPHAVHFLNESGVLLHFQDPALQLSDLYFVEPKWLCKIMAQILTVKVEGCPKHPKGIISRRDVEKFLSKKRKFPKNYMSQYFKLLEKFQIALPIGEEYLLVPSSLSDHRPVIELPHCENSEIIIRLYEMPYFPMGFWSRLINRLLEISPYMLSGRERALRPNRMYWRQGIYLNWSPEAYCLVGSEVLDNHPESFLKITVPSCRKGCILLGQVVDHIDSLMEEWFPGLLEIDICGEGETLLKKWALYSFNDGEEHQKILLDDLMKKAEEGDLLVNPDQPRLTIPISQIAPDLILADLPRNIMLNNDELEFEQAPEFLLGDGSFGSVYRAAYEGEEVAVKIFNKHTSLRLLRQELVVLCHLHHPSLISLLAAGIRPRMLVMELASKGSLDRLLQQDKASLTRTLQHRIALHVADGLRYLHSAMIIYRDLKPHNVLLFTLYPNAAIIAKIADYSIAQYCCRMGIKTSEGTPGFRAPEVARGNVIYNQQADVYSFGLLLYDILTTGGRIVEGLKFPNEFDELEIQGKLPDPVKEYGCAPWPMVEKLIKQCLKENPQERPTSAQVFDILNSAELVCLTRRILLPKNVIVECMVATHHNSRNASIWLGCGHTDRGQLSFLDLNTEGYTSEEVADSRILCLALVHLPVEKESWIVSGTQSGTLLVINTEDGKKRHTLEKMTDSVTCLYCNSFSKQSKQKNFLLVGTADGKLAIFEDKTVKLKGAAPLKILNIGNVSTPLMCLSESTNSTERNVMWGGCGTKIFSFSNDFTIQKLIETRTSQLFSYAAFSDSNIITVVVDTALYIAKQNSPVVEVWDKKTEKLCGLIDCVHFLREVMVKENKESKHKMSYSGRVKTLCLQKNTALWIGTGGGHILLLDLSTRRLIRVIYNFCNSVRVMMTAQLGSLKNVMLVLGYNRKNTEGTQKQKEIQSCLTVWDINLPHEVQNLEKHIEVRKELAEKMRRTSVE

In a further experiment the target is T2, TTK (Homo sapiens, UniProt P33981).
T2 sequence (P33981 1-857): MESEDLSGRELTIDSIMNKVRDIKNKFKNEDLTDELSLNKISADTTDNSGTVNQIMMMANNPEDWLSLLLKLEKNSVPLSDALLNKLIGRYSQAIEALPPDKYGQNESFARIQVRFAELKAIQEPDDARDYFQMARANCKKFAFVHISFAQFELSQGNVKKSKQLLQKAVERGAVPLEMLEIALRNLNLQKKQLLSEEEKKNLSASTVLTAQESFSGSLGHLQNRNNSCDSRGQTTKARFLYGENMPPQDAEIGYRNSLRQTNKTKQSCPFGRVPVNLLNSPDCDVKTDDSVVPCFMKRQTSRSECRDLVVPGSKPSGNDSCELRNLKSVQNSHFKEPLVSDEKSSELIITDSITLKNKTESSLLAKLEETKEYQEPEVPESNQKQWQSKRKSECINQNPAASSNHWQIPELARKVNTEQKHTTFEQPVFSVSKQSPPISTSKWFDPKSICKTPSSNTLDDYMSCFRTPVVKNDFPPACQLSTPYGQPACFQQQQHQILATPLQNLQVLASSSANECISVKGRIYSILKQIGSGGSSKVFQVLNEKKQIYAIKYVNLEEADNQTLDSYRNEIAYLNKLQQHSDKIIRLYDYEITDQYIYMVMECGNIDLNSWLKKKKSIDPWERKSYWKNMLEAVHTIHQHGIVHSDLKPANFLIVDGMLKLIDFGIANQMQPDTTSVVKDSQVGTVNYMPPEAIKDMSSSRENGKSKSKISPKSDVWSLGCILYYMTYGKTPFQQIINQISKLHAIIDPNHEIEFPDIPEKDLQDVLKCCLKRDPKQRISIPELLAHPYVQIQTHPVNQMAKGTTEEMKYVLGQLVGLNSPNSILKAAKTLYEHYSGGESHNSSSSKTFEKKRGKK
Briefly: TTK enzyme inhibition, ADP-Glo kinase assay. It is filed as biochemical. On the set-up: purchased SignalChem T20-10G. Conditions: ATP 5 μM. As to the method: To evaluate an inhibitory activity of the compound according to the present invention against LRRK2, LRRK2 (G2019S), DYRK1, CLK1, and TTK kinases, experiments were performed as follows.
Each of the Example compounds was reacted with a purified human TTK (SignalChem #T20-10G) enzyme to evaluate an ability to inhibit an enzyme using a method as described below. A composition of 40 mM Tris-HCl (pH 7.4), 20 mM MgCl2, 0.1 mg/mL BSA (a 5× kinase buffer, SignalChem #K03-09), and 50 μM DTT (SignalChem #D86-09B) was used as a reaction buffer, and all reactions of test substances were performed in the reaction buffer. Each of the compounds was diluted […] from a 10 mM DMSO stock using a serial dilution method, and enzyme activities were measured at final compound concentrations of 1, 0.333333, 0.111111, 0.037037, 0.012346, 0.004115, 0.001372, 0.000457, 0.000152, 0.000051, and 0.000017 μM. In the test, purified ATP (5 μM, Promega #V6930) and an MBP enzyme substrate (0.2 μg, SignalChem M42-51N) were reacted with a human TTK (7.5 ng) enzyme at 25° C. for 4 hours, and the enzyme activities were then determined using an in vitro ADP-Glo™ kinase assay (Promega #V6930). An enzyme-activity reaction solution, an ADP-Glo reaction solution, and an enzyme-ability detection solution were reacted at a ratio of 2:2:1 to measure a degree of inhibition of the enzyme activity with luminescence. The degree of inhibition of the enzyme activity according to the treatment concentration of each of the compounds was calculated based on the fluorescence of the enzyme activity of the solvent control which was not treated with the compound. In this case, the concentration of each of the compounds inhibiting 50% of the enzyme activity was determined to be an IC50 (nM) value, and calculated using Prism (Version 8.2 GraphPad) software.

The next experiment relates to MDA-MB-468 cell line. As to the kind of experiment: Inhibition of proliferation of MDA-MB-468 cancer cells (Cell Titer-Glo). The note with it: Homo sapiens, MDA-MB-468, 72 hours. It is filed as cell-based. Put shortly:
as §1
Background: In ATP-based viability assays light output follows the ATP content of the culture.

A further experiment deals with LRRK2 (Homo sapiens, UniProt Q5S007). Briefly: Kinase HotSpot service (Reaction Biology Corporation), LRRK2. In kind it is biochemical. On the set-up: purchased DiscoverX Corp. (ScanMAX Kinase analysis panel, service). The note with it: ATP 10 uM, read-out: LRRK2 IC50 (values indicated by *). The method, then:
as §2, §3

For another experiment, the target named is DYRK1 (Homo sapiens, UniProt Q13627). As to the kind of experiment: Kinase HotSpot service (Reaction Biology Corporation), DYRK1. In kind it is biochemical. Conditions: ATP 10 uM, read-out: DYRK1 IC50 (values indicated by *). The method, then: as §2, §3
The next experiment has as its target T3, CLK1 (Homo sapiens, UniProt P49759).
T3 construct: purchased DiscoverX Corp. (ScanMAX Kinase analysis panel, service)
Briefly: Kinase HotSpot service (Reaction Biology Corporation), CLK1. In kind it is biochemical. The note with it: ATP 10 uM, read-out: CLK1 IC50 (values indicated by *). As to the method:
as §2, §3

In experiment [2] the target is T1, LRRK2 (G2019S). As to the kind of experiment: LRRK2 G2019S enzyme inhibition, ADP-Glo kinase assay. It is filed as biochemical. On the set-up: purchased SignalChem L10-12GG. The note with it: ATP 25 μM. The method, boiled down:
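IC50 derived from luminescent ADP-Glo readout against untreated solvent control, twelve final compound concentrations from 50 μM downward. Reaction: recombinant human LRRK2 G2019S enzyme, 25 μM ATP, substrate, pH 7.4 Tris buffer with MgCl2/BSA/DTT, 25° C. for 2 hours.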
Target sequence in this assay (Q5S007 970-2527 G2019S limits assumed): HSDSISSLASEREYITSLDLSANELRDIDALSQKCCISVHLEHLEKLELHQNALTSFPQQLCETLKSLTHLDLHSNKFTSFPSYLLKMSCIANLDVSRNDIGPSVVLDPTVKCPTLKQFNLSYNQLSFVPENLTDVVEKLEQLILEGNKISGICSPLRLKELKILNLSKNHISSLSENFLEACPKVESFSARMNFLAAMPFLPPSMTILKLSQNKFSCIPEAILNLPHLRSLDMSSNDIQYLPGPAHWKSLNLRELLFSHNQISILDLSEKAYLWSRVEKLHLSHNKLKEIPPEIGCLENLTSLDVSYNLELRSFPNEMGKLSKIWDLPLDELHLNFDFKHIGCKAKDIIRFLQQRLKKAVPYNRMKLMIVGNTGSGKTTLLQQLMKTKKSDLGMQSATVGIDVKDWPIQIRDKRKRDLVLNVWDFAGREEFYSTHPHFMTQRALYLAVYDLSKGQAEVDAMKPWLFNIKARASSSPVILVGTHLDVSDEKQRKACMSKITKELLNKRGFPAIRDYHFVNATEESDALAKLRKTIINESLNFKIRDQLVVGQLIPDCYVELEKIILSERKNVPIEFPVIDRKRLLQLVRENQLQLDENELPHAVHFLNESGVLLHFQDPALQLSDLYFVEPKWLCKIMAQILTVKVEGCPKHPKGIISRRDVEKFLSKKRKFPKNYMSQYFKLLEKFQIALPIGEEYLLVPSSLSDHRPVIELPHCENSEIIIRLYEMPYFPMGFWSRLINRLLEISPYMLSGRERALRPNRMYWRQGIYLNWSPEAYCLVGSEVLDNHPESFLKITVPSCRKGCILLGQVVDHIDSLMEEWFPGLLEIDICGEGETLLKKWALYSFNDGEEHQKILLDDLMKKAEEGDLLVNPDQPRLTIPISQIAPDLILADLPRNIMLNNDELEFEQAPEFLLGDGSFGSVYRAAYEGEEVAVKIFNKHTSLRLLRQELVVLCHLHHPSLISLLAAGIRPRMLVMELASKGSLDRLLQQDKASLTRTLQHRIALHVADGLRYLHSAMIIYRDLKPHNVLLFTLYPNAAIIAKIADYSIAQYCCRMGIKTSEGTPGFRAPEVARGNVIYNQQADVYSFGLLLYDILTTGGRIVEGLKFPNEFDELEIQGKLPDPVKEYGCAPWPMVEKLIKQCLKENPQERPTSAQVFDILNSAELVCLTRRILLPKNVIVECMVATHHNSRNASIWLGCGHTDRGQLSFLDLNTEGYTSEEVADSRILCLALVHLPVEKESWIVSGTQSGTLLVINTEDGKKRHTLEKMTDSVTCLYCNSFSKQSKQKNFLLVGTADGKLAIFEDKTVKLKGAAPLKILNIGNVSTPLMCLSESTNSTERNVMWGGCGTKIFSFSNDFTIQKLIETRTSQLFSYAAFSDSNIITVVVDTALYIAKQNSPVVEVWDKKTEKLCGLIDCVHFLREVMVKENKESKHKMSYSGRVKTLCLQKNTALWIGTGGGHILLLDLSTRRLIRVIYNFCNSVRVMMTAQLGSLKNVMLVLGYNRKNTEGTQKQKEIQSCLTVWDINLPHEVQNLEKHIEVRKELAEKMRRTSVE

A further experiment concerns IL-6. Briefly: Inhibition of LPS-induced IL-6 secretion of THP-1 monocytes (ELISA). It is filed as cell-based, human. Conditions: Homo sapiens, THP-1; compound 0.5 μM, LPS 500 ng/mL, 24 hours; read-out: THP1/IL6 (% inhib). Put shortly: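 THP-1 monocytes grown 16 h at 37 °C, pretreated 1 h with compound at final 0.5 μM, then stimulated with LPS at final 500 ng/mL for 24 h. IL-6 and TNF-α in culture supernatant measured by ELISA (OD 450 nm).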
Background: In an ELISA, binding on a coated surface is turned into a signal by an enzyme label.

T3 sequence (P49759 whole entry): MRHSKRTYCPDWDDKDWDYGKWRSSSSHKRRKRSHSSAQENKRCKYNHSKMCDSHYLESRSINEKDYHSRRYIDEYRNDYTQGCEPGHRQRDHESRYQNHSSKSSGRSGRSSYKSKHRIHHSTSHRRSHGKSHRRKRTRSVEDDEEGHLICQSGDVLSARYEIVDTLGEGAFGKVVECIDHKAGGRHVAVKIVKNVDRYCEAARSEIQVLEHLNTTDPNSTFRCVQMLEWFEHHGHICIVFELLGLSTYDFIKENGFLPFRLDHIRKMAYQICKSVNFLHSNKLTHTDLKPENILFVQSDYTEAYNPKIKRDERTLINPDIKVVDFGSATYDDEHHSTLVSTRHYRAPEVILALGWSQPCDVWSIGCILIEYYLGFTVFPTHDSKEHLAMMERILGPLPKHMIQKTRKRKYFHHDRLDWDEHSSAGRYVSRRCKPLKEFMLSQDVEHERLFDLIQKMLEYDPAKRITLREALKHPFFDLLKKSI
Sequence of LRRK2 (Q5S007 whole entry): as the sequence (Q5S007 whole entry G2019S) above, with S2019G counted along it

On to `COc1cc(S(=O)(=O)N2CCOCC2)ccc1Nc1nc(C2CC2)c2c(C(F)(F)F)c[nH]c2n1` [Example 225, 4-cyclopropyl-N-(2-methoxy-4-(morpholinosulfonyl)phenyl)-5-(trifluoromethyl)-7H-pyrrolo[2,3-d]pyrimidin-2-amine], for which the inhibition at 1 µM with human DYRK1A and tau worked out at 29.9%. Also, in the experiment with human DYRK1A and tau, the inhibition at 0.25 µM was 1%. Moreover, in the experiment on human DYRK1A and tau, the inhibition at 0.5 µM is -2.5%. In addition, the 50% growth inhibitory concentration (GI50) in the experiment with MDA-MB-231 cell line and in the experiment with MDA-MB-468 cell line was 301 to 1000 nM each time. Besides, the IC50 at LRRK2 (G2019S) [1], against TTK, at LRRK2, at DYRK1 and at CLK1 was less than 0.1 µM throughout.

With `O=C(c1ccc(Nc2nc(C3CC3)c3c(C(F)(F)F)c[nH]c3n2)c2c1OCCO2)N1CCOCC1` [Example 227, (8-((4-cyclopropyl-5-(trifluoromethyl)-7H-pyrrolo[2,3-d]pyrimidin-2-yl)amino)-2,3-dihydrobenzo[b][1,4]dioxin-5-yl)(morpholino)methanone], the inhibition at 1 µM in the experiment with human DYRK1A and tau was found to be 32.7%. Further, in the experiment on human DYRK1A and tau, the inhibition at 0.25 µM was 7.4%. Moreover, in the experiment on human DYRK1A and tau, the inhibition at 0.5 µM is 22.8%. The IC50 at LRRK2 (G2019S) [1] is less than 0.1 µM; at TTK, 0.101 to 0.3 µM; at LRRK2 it was less than 0.1 µM; on DYRK1 it was less than 0.1 µM; on CLK1, less than 0.1 µM. In the experiment with MDA-MB-468 cell line, this molecule registered a 50% growth inhibitory concentration (GI50) of 301 to 1000 nM.

`C=CCNc1nc(Nc2ccc(S(=O)(=O)N3CCC(N4CCOCC4)CC3)cc2OC)nc2[nH]cc(C(F)(F)F)c12` [Example 469, N^4-allyl-N2-(2-methoxy-4-((4-morpholino-piperidin-1-yl)sulfonyl)phenyl)-5-(trifluoromethyl)-7H-pyrrolo[2,3-d]pyrimidine-2,4-diamine]: the GI50 in the experiment with MDA-MB-231 cell line and in the experiment on MDA-MB-468 cell line was 101 to 300 nM each time. The IC50 against LRRK2 (G2019S) [2], at LRRK2, on DYRK1 and at CLK1 was less than 0.1 µM in each case.

Regarding `O=C(c1ccc(Nc2nc(C3CC3)c3c(C(F)(F)F)c[nH]c3n2)c2c1CCO2)N1CC[C@H](N2CCOCC2)C1` [Example 472], the inhibition at 1 µM in the experiment with human DYRK1A and tau was 56.5%. Further, in the experiment with human DYRK1A and tau, the inhibition at 0.25 µM is 23.6%. Further, the inhibition at 0.5 µM was 36.5% with human DYRK1A and tau; 31.5% with IL-6. Also, the IC50 against TTK, at LRRK2, at DYRK1 and on CLK1 was less than 0.1 µM throughout. In the experiment on MDA-MB-468 cell line, this molecule yielded a GI50 of 301 to 1000 nM.
